The record followed here is patent US20210205292A1, “INHIBITORS OF CREB-CBP INTERACTION FOR TREATMENT OF LEUKEMIA” (The Board of Trustees of the Leland Stanford Junior …, priority 2016, published 2021).

The subject of series [1] is H3K27 acetylation at CREB-bound genes. Description: Whole-genomic H3K27 histone acetylation analysis in KG-1 cells. It counts as cell-based. As to conditions: 5 μM.
Series [2] relates to normal bone marrow cells. The series can be described thus: Normal bone marrow samples, viability. It counts as cell-based, human. As to conditions: 72 hours.

With `N#Cc1ccc(NC(=O)c2cc3ccccc3cc2O)cc1` [Compound A, N-(4-cyanophenyl)-3-hydroxy-2-naphthamide], in series [1], the “CREB-bound genes with decreased H3K27 histone acetylation” value is recorded as “Greater than 95%”. For the same molecule, in series [2], the “viability of normal bone marrow cells” value was “did not significantly change”.
